The source of these data is patent US9359392B2, “Dendrimer scaffolds for pharmaceutical use” (Victoria Link Limited, priority 2012, dated 2016).

A short description of data set [1]: Stability under forcing degradation conditions with HPLC monitoring. The data set is classed as physicochemical. The source says: Assessment of Potential Cytotoxicity
In a further data set the test system is sheep spleen cells. Description: Assessment of potential cytotoxicity: percentage cell viability versus a PBS control. The data set is classed as cell-based. The following applies: 36.5° C. How it is done:
The potential cytotoxic properties of compounds 12, 13 and 14 were evaluated by measuring percentage cell viability of sheep spleen cells versus a PBS control after 24 h and 48 h exposure to 0.01, 0.1 and 1 mg/mL solutions of each compound in PBS at 36.5° C.

Data set [2] in a line: Water relaxivity measurements (T1, inversion recovery NMR). It is filed as physicochemical. The following applies: 500 MHz (11.75 T), 30° C., aqueous solution. As for the experimental part: Water relaxivity measurements provide an indication of whether a material will increase contrast in MRI imaging techniques. Water relaxivity measurements were performed in aqueous solutions. T1 measurements were made on a 500 MHz (11.75 T) Bruker NMR using a standard inversion recovery sequence (180-t-90) at 30° C. The relaxivity of water in D2O in the presence of (meglumine)2[Gd(III)(DPTA)(OH2)]

The conditions of data set [3]: comparator salt, stated without test; cited from earlier work.

On to “2-Aminoacetic acid(N,N):{6,9-diaza-3-oxa-7-oxononanyl(9,9)}2x,4x,8x^G1,G2,G3:(6-aza-3,11-dioxa-7,10-dioxoundecanyl)16-cascadane [compound 13]”, for which the degradation in data set [1] (24 h in 1% H2O2 at 20° C.) is 63%; in data set [1] (24 h in 1 M HCl at 20° C.) it was 12%; in data set [1] (24 h in 1 M NaOH at 20° C.), 30%; in data set [1] (24 h neat at 40° C.), “No observable degradation”; in data set [1] (24 h neat at 80° C.), 41%. For the same compound, the Cell viability came out at 107% in the data set with sheep spleen cells (0.01 mg/mL in PBS, 24 h); 97% in the data set with sheep spleen cells (0.01 mg/mL in PBS, 48 h); 104% with sheep spleen cells (0.1 mg/mL in PBS, 24 h); 98% in the data set with sheep spleen cells (0.1 mg/mL in PBS, 48 h); 106% with sheep spleen cells (1 mg/mL in PBS, 24 h); 100% with sheep spleen cells (1 mg/mL in PBS, 48 h).

Regarding “2-Aminoacetic acid(N,N):{6,9-diaza-3-oxa-7-oxononanyl(9,9)}2x,4x,8x^G1,G2,G3:(6-aza-3-oxa-7-oxooctanyl)16-cascadane [compound 14]”, the Cell viability in the data set on sheep spleen cells (0.01 mg/mL in PBS, 24 h) came to 104%; with sheep spleen cells (0.01 mg/mL in PBS, 48 h) it was 99%; in the data set with sheep spleen cells (0.1 mg/mL in PBS, 24 h) it was 104%; in the data set with sheep spleen cells (0.1 mg/mL in PBS, 48 h), 97%; in the data set with sheep spleen cells (1 mg/mL in PBS, 24 h) it was 97%; in the data set with sheep spleen cells (1 mg/mL in PBS, 48 h), 90%.

Take “2-Aminoacetic acid(N,N):{6,9-diaza-3-oxa-7-oxononanyl(9,9)}2x,4x,8x^G1,G2,G36:(5-amino-3-oxapentanyl)16-cascadane [compound 12]”: the Cell viability in the data set with sheep spleen cells (0.01 mg/mL in PBS, 24 h) is 94%; with sheep spleen cells (0.01 mg/mL in PBS, 48 h), 84%; in the data set on sheep spleen cells (0.1 mg/mL in PBS, 24 h), 92%; in the data set on sheep spleen cells (0.1 mg/mL in PBS, 48 h), 85%; in the data set with sheep spleen cells (1 mg/mL in PBS, 24 h), 99%; in the data set on sheep spleen cells (1 mg/mL in PBS, 48 h) it was 87%.

`CNC[C@H](O)[C@@H](O)[C@H](O)[C@H](O)CO.CNC[C@H](O)[C@@H](O)[C@H](O)[C@H](O)CO.O=C([O-])CN(CCN(CC(=O)[O-])CC(=O)O)CCN(CC(=O)[O-])CC(=O)O.[Gd+3]` [(meglumine)2[Gd(III)(DPTA)(OH2)], reference compound]: the “relaxivity of water in D2O” value in data set [2] was determined as 3.84 mM⁻¹ s⁻¹.

Consider `O=C([O-])CN(CCN(CC(=O)[O-])CC(=O)[O-])CCN(CC(=O)[O-])CC(=O)[O-].[Gd+3].[Na+].[Na+]` [Gd-DPTA disodium salt], for which, in data set [3], the water solubility result is “sparingly water soluble”.

Take “Gadolinium complex of 2-aminoacetic acid(N,N):{6-aza-3-oxahexanyl(6,6)}2x^G1: (carboxymethyl)4-cascadane [34-Gd]”: the “relaxivity of water in D2O” value in data set [2] stood at 1.20 mM⁻¹ s⁻¹.
